These compounds were tested against T1, human FSH receptor (Homo sapiens, UniProt P23945) (assay: Antagonistic activity at the human FSH receptor expressed in CHO cells (CRE-luciferase reporter)). Conditions: CHO cells stably transfected with human FSH receptor and CRE-luciferase; with 49 μM recFSH; 4 hours incubation; read-out: IC50 (inhibition of recFSH-induced luciferase stimulation).
T1 construct: expressed in transfected cells; host or cells: CHO (Chinese Hamster Ovary) cells, stably transfected; cotransfected with a CRE-luciferase reporter
T1 sequence (P23945 18-695): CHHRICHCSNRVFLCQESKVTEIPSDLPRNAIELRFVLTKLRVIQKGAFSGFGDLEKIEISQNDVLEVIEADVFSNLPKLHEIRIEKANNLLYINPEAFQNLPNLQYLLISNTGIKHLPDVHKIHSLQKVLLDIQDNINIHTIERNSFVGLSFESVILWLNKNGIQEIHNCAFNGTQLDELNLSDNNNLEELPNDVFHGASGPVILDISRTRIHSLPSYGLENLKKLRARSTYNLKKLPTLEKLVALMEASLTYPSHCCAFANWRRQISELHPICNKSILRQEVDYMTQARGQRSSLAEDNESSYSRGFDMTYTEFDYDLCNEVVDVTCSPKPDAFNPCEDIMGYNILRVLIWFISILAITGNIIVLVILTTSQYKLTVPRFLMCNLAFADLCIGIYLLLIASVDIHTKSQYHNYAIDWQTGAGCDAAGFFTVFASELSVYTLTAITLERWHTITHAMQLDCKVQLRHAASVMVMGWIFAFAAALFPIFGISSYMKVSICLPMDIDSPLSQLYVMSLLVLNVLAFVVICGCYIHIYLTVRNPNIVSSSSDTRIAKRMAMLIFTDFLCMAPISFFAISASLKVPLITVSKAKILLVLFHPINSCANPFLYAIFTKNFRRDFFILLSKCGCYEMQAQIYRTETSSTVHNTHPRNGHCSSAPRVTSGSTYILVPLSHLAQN
Format: cell-based
Procedure: Antagonistic Activity of Compounds at the Human FSH Receptor Expressed in CHO Cells
Antagonistic activity of the compounds at the human FSH receptor was determined in Chinese Hamster Ovary (CHO) cells stably transfected with the human FSH receptor and cotransfected to with a cAMP responsive element (CRE)/promoter directing the expression of a firefly luciferase reporter gene. Binding of the compounds to the Gs protein-coupled FSH receptor will result in an increase of cAMP, which in turn will induce an increased transactivation of the luciferase reporter. The cells (7,500 cells/well of a 384 well plate) were incubated in Dulbecco′ minimal essential F12 modified medium (Invitrogen), supplemented with 1 μg/ml bovine insulin, 5 μg/ml human apo-transferrin, 100 U/ml penicillin G and 100 μg/ml streptomycin with the test compounds (concentration between 0.316 nM and 10.0 μM) in duplicate together with […] recFSH (which, at this concentration in the absence of test compound, induces 80% of the maximal luciferase stimulation) in a humidified atmosphere (95%) at 5-7% CO2 and 37° C. The final concentration of DMSO was 1%. After 4 hours of incubation, plates were allowed to adjust to room temperature for 1 hour. Then, SteadyLite (PerkinElmer) solution was added to the wells and cells were allowed to lyse for at least 1 hour at room temperature. Subsequently, luciferase activity was measured in a luminescence counter. The signal is expressed as counts per second (cps). The IC50 (concentration of test compound causing half-maximal (50%) inhibition of the maximally attainable inhibition of the luciferase stimulation by the compound) and efficacy of the compounds were determined using the software program MathIQ (version 2.3, ID Business Solutions Limited).

IC50, 100 to 1000 nM:
CC(C)Oc1cc2oc(=O)c3cc4c(cc3c2cc1C(=O)N[C@@H](CO)Cc1c[nH]c2ccccc12)OCO4 [Example 57, N—((R)-1-hydroxy-3-(1H-indol-3-yl)propan-2-v)-8,9-(1′,3′-dioxolo)-3-(3-isopropoxy)-6-oxo-6H-benzo[c]chromene-2-carboxamide]

IC50, < 100 nM:
COc1cc2c(cc1-c1cnn(C)c1)COc1cc(-c3ccccc3F)c(C(=O)N[C@@H](CO)Cc3c[nH]c4ccccc34)cc1-2 [Example 51, 3-(2-fluorophenyl)-N—((R)-1-hydroxy-3-(1H-indol-3-yl)propan-2-yl)-9-methoxy-8-(1-methyl-1H-pyrazol-4-yl)-6H-benzo[c]chromene-2-carboxamide]
COc1cc2c(cc1-c1ccncc1)COc1cc(-c3ccccc3F)c(C(=O)N[C@@H](CO)Cc3c[nH]c4ccccc34)cc1-2 [Example 52, 3-(2-fluorophenyl)-N—((R)-1-hydroxy-3-(1H-indol-3-yl)propan-2-yl)-9-methoxy-8-(pyridin-4)-6H-benzo[c]chromene-2-carboxamide]
O=C(N[C@@H](CO)Cc1c[nH]c2ccccc12)c1cc2c(cc1-c1ccccc1F)OCc1cc(C(=O)N3CCOCC3)ccc1-2 [Example 53, 3-(2-fluorophenyl)-N—((R)-1-hydroxy-3-(1H-indol-3-yl)propan-2-yl)-8-(morpholine-4-carbonyl)-6H-benzo[c]chromene-2-carboxamide]
CN(C)C(=O)c1ccc2c(c1)COc1cc(-c3ccccc3F)c(C(=O)N[C@@H](CO)Cc3c[nH]c4ccccc34)cc1-2 [Example 54, 3-(2-fluorophenyl)-N2-((R)-1-hydroxy-3-(1H-indol-3-yl)propan-2-yl)-N8,N8-dimethyl-6H-benzo[c]chromene-2,8-dicarboxamide]
O=C(N[C@@H](CO)Cc1c[nH]c2ccccc12)c1cc2c(cc1-c1ccccc1F)OCc1cc3c(cc1-2)OCO3 [Example 55, 3-(2-fluorophenyl)-N—((R)-1-hydroxy-3-(1H-indol-3-yl)propan-2-yl)-8,9-(1′,3′-dioxolo)-6H-benzo[c]chromene-2-carboxamide]
Cc1ccsc1-c1cc2c(cc1C(=O)N[C@@H](CO)Cc1c[nH]c3ccccc13)-c1cc3c(cc1CO2)OCO3 [Example 56, N—((R)-1-hydroxy-3-(1H-indol-3-yl)propan-2-yl)-8,9-(1′,3′-dioxolo)-3-(3-methylthiophen-2-yl)-6H-benzo[c]chromene-2-carboxamide]
COc1cc2c(cc1OC)-c1cc(C(=O)N[C@@H](CO)Cc3c[nH]c4ccccc34)c(OC(C)C)cc1CC2 [Example 58, (R)-2-isopropoxy-N-(1-hydroxy-3-(1H-indol-3-yl)propan-2-yl)-6,7-dimethoxy-9,10-dihydrophenanthrene-3-carboxamide]

Reference: patent US9044463B2, “FSH receptor antagonists” (Merck Sharp & Dohme B.V., priority 2011, dated 2015)
